This is an account of results in patent US10759814B2, “Pharmaceutical compositions containing substituted polycyclic pyridone derivatives and prodrug thereof” (priority 2016, dated 2020).

Where two headings read alike, the source gives them in different places.

The nature of series [1]: Metabolism stability test. Type of series: in vitro ADME, human. The note with it: 2 μmol/L of test compound; 37° C., 30 minutes. The method, then: Test Example 5: Metabolism Stability Test
A reaction was performed (oxidative reaction) at 37° C. for 0 minute or 30 minutes in the presence of 1 mmol/L NADPH in 0.2 mL of a buffer (50 mmol/L Tris-HCl pH 7.4, 150 mmol/L potassium chloride, 10 mmol/L magnesium chloride) containing 0.5 mg protein/mL of human liver microsomes. After the reaction, 50 μL of the reaction solution was added to 100 μL of a methanol/acetonitrile=1/1 (v/v), mixed and centrifuged at 3000 rpm for 15 minutes. The compound used in the present invention in the supernatant was quantified by LC/MS/MS or Solid Phase Extraction (SPE)/MS, and a remaining amount of the compound used in the present invention after the reaction was calculated, letting a compound amount at 0 minute reaction time to be 100%. Hydrolysis reaction was performed in the absence of NADPH and glucuronidation reaction was in the presence of 5 mM UDP-glucuronic acid in place of NADPH, followed by similar operations.

Series [2] concerns red blood cells. Briefly: Light hemolysis test. Type of series: cell-based, sheep. The following applies: UV-irradiation 290 to 400 nm; 0.0008 to 0.1 w/v %. The procedure:
Test Example 12: Light Hemolysis Test
The compound used in the present invention was dissolved at target concentrations and was mixed with a 2.5 v/v % suspension of red blood cells prepared from a defibrinated blood of sheep on a microplate at concentrations of 0.0008 to 0.1 w/v %. The mixtures were exposed to […] of UV-irradiation within a range of wavelength 290 to 400 nm, UVA and UVB using ultra violet fluorescent lamps, GL20SE and FL20S-BLB lamps manufactured by Sankyo Denki Co., Ltd. and Panasonic Corporation, respectively. After the completion of the irradiation, the mixtures were centrifuged, and a supernatant of the mixture was collected and was located on a microplate. The phototoxicity was assessed by measuring an absorbance at wavelength of 540 nm and 630 nm in the supernatant. The absorbance data at wavelength of 540 nm and 630 nm were used as indicators of biomembrane damage (photohemolysis %) and hyperoxidation of lipid membrane (methemoglobin formation), respectively. The criteria of phototoxicity was as follows; It was judged to be non-phototoxic (−) when the photohemolysis %<10 and the maximal change in the absorbance at 630 nm (ΔOD)<0.05 were observed. It was judged to be […] when the photohemolysis was more than 10% and the maximal change in the absorbance at 630 nm (ΔOD) was more than 0.05.

The subject of series [3] is influenza virus. Type of series: in vivo, human. The following applies: 20 to <65 years old.
Series [4] is classed as in vivo, human. The following applies: Compound II-6 single 40 or 80 mg; Oseltamivir 75 mg twice a day for 5 days. The source says:
(4) Incidence of side effects
(4) Incidence of Side Effects
The number of side-effect episodes and the number of patients with side effect were counted for each administration group.

As for `O=C1c2c(O)c(=O)ccn2N([C@@H]2c3ccccc3SCc3c2ccc(F)c3F)[C@@H]2COCCN12` [III-2], the “remaining rate after reaction with human liver microsomes (printed: % inhibition)” value in series [1] was found to be 90.1%. The phototoxicity entry in series [2] is “(−) (It was judged to be non-phototoxic (−) when the photohemolysis %<10 and the maximal change in the absorbance at 630 nm (ΔOD)<0.05 were observed)”.

Consider `CCOC(=O)C1=C[C@@H](OC(CC)CC)[C@H](NC(C)=O)[C@@H](N)C1` [Oseltamivir, reference compound], for which the “Amount of change in virus titer from baseline, mean” value in series [3] (Day 2 (24 hours later)) was −2.51 log10 [TCID50/mL]; in series [3] (Day 3 (48 hours later)) it was −4.20 log10 [TCID50/mL]; in series [3] (Day 4 (72 hours later)) it was −4.63 log10 [TCID50/mL]; in series [3] (Day 5 (96 hours later)) it was −4.98 log10 [TCID50/mL]; in series [3] (Day 6 (120 hours later)) it was −4.85 log10 [TCID50/mL]; in series [3] (Day 9 (192 hours later)), −5.22 log10 [TCID50/mL]. Besides, the “Proportion of patients having a positive influenza virus titer” value in series [3] (Day 2 (24 hours later)) came out at 91.0%; in series [3] (Day 3 (48 hours later)) it was 57.3%; in series [3] (Day 4 (72 hours later)), 27.6%; in series [3] (Day 5 (96 hours later)), 20.9%; in series [3] (Day 6 (120 hours later)), 9.0%; in series [3] (Day 9 (192 hours later)), 3.2%. In series [4], the “Incidence of adverse events the causal relationship of which cannot be denied (patients)” value was 8.4%.
